From the NIST ThermoML archive (doi:10.1016/j.tca.2013.05.017)
Values joined by “and” are separate entries in the source; they are usually repeats but may differ in a detail not shown here. Identical values can stand only once.

Assay: molar heat capacity at constant pressure
Conditions: 101.33 kPa, Crystal 2, Small (less than 1 g) adiabatic calorimetry

O=S(=O)([O-])[O-].[Sr+2] [sulfuric acid, strontium salt (1:1)]
Conditions	molar heat capacity at constant pressure
5 K	0.03816 J/K/mol
5.083 K	0.04505 J/K/mol
5.422 K	0.04233 J/K/mol
5.622 K	0.05543 J/K/mol
5.831 K	0.05464 J/K/mol
6.044 K	0.06693 J/K/mol
6.285 K	0.07062 J/K/mol
6.354 K	0.08024 J/K/mol
6.677 K	0.09728 J/K/mol
6.759 K	0.1018 J/K/mol
7.066 K	0.1205 J/K/mol
7.169 K	0.1252 J/K/mol
7.482 K	0.1475 J/K/mol
7.591 K	0.1545 J/K/mol
7.904 K	0.1777 J/K/mol
8.021 K	0.1873 J/K/mol
8.33 K	0.2151 J/K/mol
8.448 K	0.2273 J/K/mol
8.763 K	0.2543 J/K/mol
8.881 K	0.2707 J/K/mol
9.197 K	0.3046 J/K/mol
9.317 K	0.3217 J/K/mol
9.635 K	0.3631 J/K/mol
9.755 K	0.3798 J/K/mol
10 K	0.4163 J/K/mol
10.08 K	0.427 J/K/mol
10.2 K	0.4451 J/K/mol
10.75 K	0.543 J/K/mol
10.86 K	0.5647 J/K/mol
11.64 K	0.7154 J/K/mol
11.75 K	0.7406 J/K/mol
12.54 K	0.9194 J/K/mol
12.65 K	0.9503 J/K/mol
13.45 K	1.16 J/K/mol
13.55 K	1.197 J/K/mol
14.36 K	1.446 J/K/mol
14.47 K	1.484 J/K/mol
15 K	1.665 J/K/mol
15.29 K	1.771 J/K/mol
15.39 K	1.813 J/K/mol
16.22 K	2.105 J/K/mol
16.32 K	2.148 J/K/mol
17.16 K	2.488 J/K/mol
17.26 K	2.531 J/K/mol
18.1 K	2.928 J/K/mol
18.2 K	2.96 J/K/mol
19.05 K	3.383 J/K/mol
19.14 K	3.432 J/K/mol
20 K	3.864 J/K/mol
20.01 K	3.84 J/K/mol
20.1 K	3.907 J/K/mol
21.44 K	4.638 J/K/mol
21.53 K	4.687 J/K/mol
23.36 K	5.734 J/K/mol
23.44 K	5.783 J/K/mol
25 K	6.782 J/K/mol
25.3 K	6.945 J/K/mol
25.37 K	6.99 J/K/mol
27.25 K	8.25 J/K/mol
27.32 K	8.313 J/K/mol
29.2 K	9.624 J/K/mol
30 K	10.21 J/K/mol
30.75 K	10.74 J/K/mol
31.17 K	11.03 J/K/mol
32.62 K	12.1 J/K/mol
33.14 K	12.44 J/K/mol
34.6 K	13.58 J/K/mol
34.76 K	13.71 J/K/mol
35 K	13.95 J/K/mol
35.1 K	13.99 J/K/mol
36.58 K	15.12 J/K/mol
36.73 K	15.23 J/K/mol
37.07 K	15.51 J/K/mol
38.55 K	16.71 J/K/mol
38.7 K	16.81 J/K/mol
40 K	17.87 J/K/mol
40.53 K	18.29 J/K/mol
40.68 K	18.39 J/K/mol
42.52 K	19.85 J/K/mol
42.65 K	19.96 J/K/mol
44.51 K	21.4 J/K/mol
44.63 K	21.49 J/K/mol
45 K	21.83 J/K/mol
46.49 K	22.95 J/K/mol
46.61 K	23 J/K/mol
48.48 K	24.46 J/K/mol
48.59 K	24.49 J/K/mol
50 K	25.73 J/K/mol
50.48 K	26 J/K/mol
50.57 K	26.02 J/K/mol
52.46 K	27.61 J/K/mol
52.55 K	27.61 J/K/mol
54.45 K	29.14 J/K/mol
54.52 K	29.14 J/K/mol
55 K	29.5 J/K/mol
56.45 K	30.48 J/K/mol
56.51 K	30.49 J/K/mol
58.44 K	31.73 J/K/mol
58.49 K	31.79 J/K/mol
60 K	33.05 J/K/mol
60.44 K	33.28 J/K/mol
60.48 K	33.28 J/K/mol
62.43 K	34.65 J/K/mol
62.46 K	34.66 J/K/mol
64.42 K	35.97 J/K/mol
64.44 K	35.9 J/K/mol
65 K	36.36 J/K/mol
66.35 K	37.12 J/K/mol and 37.15 J/K/mol
68.19 K	38.26 J/K/mol
68.21 K	38.27 J/K/mol
69.98 K	39.31 J/K/mol
70 K	39.32 J/K/mol and 39.45 J/K/mol
72.35 K	40.74 J/K/mol
72.39 K	40.75 J/K/mol
75 K	42.32 J/K/mol
75.34 K	42.37 J/K/mol
75.41 K	42.41 J/K/mol
78.33 K	43.98 J/K/mol
78.44 K	44.04 J/K/mol
79.87 K	44.73 J/K/mol
80 K	44.96 J/K/mol
81.29 K	45.47 J/K/mol
81.33 K	45.52 J/K/mol
81.48 K	45.58 J/K/mol
83.56 K	46.57 J/K/mol
84.99 K	47.25 J/K/mol
85 K	47.4 J/K/mol
85.53 K	47.51 J/K/mol
85.54 K	47.52 J/K/mol
86.61 K	48.03 J/K/mol
88.05 K	48.76 J/K/mol
89.26 K	49.19 J/K/mol
89.28 K	49.23 J/K/mol
89.67 K	49.42 J/K/mol
90 K	49.69 J/K/mol
92.33 K	50.55 J/K/mol
92.35 K	50.59 J/K/mol
92.74 K	50.75 J/K/mol
95 K	51.83 J/K/mol
95.41 K	51.85 J/K/mol
95.43 K	51.89 J/K/mol
95.81 K	52.06 J/K/mol
98.5 K	53.08 J/K/mol
98.51 K	53.12 J/K/mol
98.89 K	53.27 J/K/mol
100 K	53.84 J/K/mol
101.59 K	54.27 J/K/mol
101.61 K	54.31 J/K/mol
101.98 K	54.46 J/K/mol
104.69 K	55.44 J/K/mol
104.71 K	55.47 J/K/mol
105.08 K	55.61 J/K/mol
107.8 K	56.58 J/K/mol
107.82 K	56.6 J/K/mol
108.19 K	56.76 J/K/mol
110 K	57.52 J/K/mol
110.92 K	57.67 J/K/mol
110.94 K	57.74 J/K/mol
111.31 K	57.81 J/K/mol
114.04 K	58.72 J/K/mol
114.06 K	58.77 J/K/mol
114.43 K	58.88 J/K/mol
117.18 K	59.76 J/K/mol
117.2 K	59.81 J/K/mol
117.56 K	59.97 J/K/mol
120 K	60.88 J/K/mol
120.32 K	60.79 J/K/mol
120.33 K	60.87 J/K/mol
120.71 K	60.96 J/K/mol
123.46 K	61.8 J/K/mol
123.49 K	61.84 J/K/mol
123.85 K	61.96 J/K/mol
126.62 K	62.8 J/K/mol
126.64 K	62.83 J/K/mol
127.01 K	62.93 J/K/mol
129.77 K	63.78 J/K/mol
129.8 K	63.86 J/K/mol
130 K	64.04 J/K/mol
130.19 K	63.91 J/K/mol
132.94 K	64.72 J/K/mol
132.97 K	64.77 J/K/mol
133.35 K	64.93 J/K/mol
136.13 K	65.69 J/K/mol
136.16 K	65.79 J/K/mol
136.53 K	65.82 J/K/mol
139.32 K	66.68 J/K/mol
139.35 K	66.65 J/K/mol
139.72 K	66.8 J/K/mol
140 K	67.03 J/K/mol
142.51 K	67.53 J/K/mol
142.54 K	67.62 J/K/mol
142.91 K	67.65 J/K/mol
